{"source": "paper PMC9751883", "about": "“Discovery of new potent lysine specific histone demythelase-1 inhibitors (LSD-1) using structure based and ligand based molecular modelling and machine learning” (RSC Advances, 2022)", "key": {"[1]": {"tested_on": "glioblastoma U-87 MG cells", "assay": "MTT cytotoxicity against U-87 MG cells", "type": "cell-based", "description": "(§1) The anticancer effects of captured hits were evaluated against SH-SY5Y (Neuroblastoma, CRL-2266), Panc-1 (pancreatic carcinoma, CRL-1469) and U-87 MG (glioblastoma, HTB-14) cells. Details about growth conditions, cell harvesting and counting are available in ESI Sections SM12–SM14. ^† The cancer killing profiles of tested compounds were evaluated colorimetrically using the Cell Titer Non-Radioactive Cell Proliferation Assay Kit® (Promega, USA) based on the reduction of a yellow tetrazole, 3-(4,5-Dimethylthiazol-2-yl)-2, 5-diphenyl tetrazolium bromide (MTT), to a purple formazan, a process that takes place in the mitochondria of viable cells (details are in ESI Sections SM12–SM14 ^†).[98,99]\n(§2) Panc-1 and U-87 MG cells were used to probe LSD-1 inhibition by candidate inhibitors.[119,120] However, testing against HDF is aimed at evaluating the selective cytotoxicities of hits."}, "LSD-1": {"target": "T1, LSD-1 (Homo sapiens, UniProt O60341)", "T1 construct": "purchased Cayman Chemical-USA 700120", "assay": "fluorometric LSD-1 enzymatic assay (Cayman kit)", "type": "biochemical", "settings": "for IC50: read-out: IC50 LSD-1 enzyme", "description": "Briefly, the assay is based on a multistep enzymatic reaction in which LSD-1 first produces H2O2 during the demethylation of lysine 4 on a peptide corresponding to the first 21 amino acids of the N-terminal tail of histone H3. In the presence of horseradish peroxidase (HRP), H2O2 reacts with ADHP (10-acetyl-3,7-dihydroxyphenoxazine) to produce the highly fluorescent compound resorufin. Resorufin fluorescence was analysed with an excitation wavelength 530–540 nm and an emission wavelength of 585–595 nm. […] The procedure proceeds through the following steps: (i) prepare 100% initial activity wells by adding 120 μl of assay buffer, 20 μl of LSD1, 20 μl of HRP, 10 μl of ADHP, and 10 μl of DMSO to three wells. […] (iv) Initiate the reactions by adding 20 μl of substrate peptide to all the wells being used, except the background wells. (v) Cover the plate with the plate cover and incubate for 30 minutes at 37 °C. (vi) Remove the plate cover and read the plate using an excitation wavelength of 530–540 nm and an emission wavelength of 585–595 nm. (vii) Determine the average fluorescence of each sample. (viii) Subtract the fluorescence of the background wells from the fluorescence of the 100% initial activity and the inhibitor wells. (ix) Determine the percent inhibition for each sample. To do this, subtract each inhibitor sample value from the 100% initial activity sample value."}, "[2]": {"tested_on": "pancreatic carcinoma Panc-1 cells", "assay": "MTT cytotoxicity against Panc-1 cells", "type": "cell-based", "settings": "for SI: selectivity index in comparison with SH-SY5Y cells, Panc-1: Panc-1 vs SH-SY5Y", "description": "as §1, §2"}, "[3]": {"tested_on": "normal human dermal fibroblasts (HDF)", "assay": "cytotoxicity against normal human dermal fibroblasts", "type": "cell-based", "settings": "for SI: selectivity index in comparison with SH-SY5Y cells, HDF: HDF vs SH-SY5Y", "from_the_text": "However, testing against HDF is aimed at evaluating the selective cytotoxicities of hits."}, "[4]": {"tested_on": "neuroblastoma SH-SY5Y cells", "assay": "MTT cell viability assay on SH-SY5Y cells", "type": "cell-based", "settings": "for Experimental % inhibition Without verapamil At 50 μM: 72 h; for IC50: read-out: In vitro IC50", "description": "as §1\nAs SH-SY5Y cells highly express ATP binding cassette subfamily B member 1 (ABCB1, MDR1, normalized expression, NX: 36.8%),[100] cell resistance were reversed using verapamil (10 μM), which was added with each hit, and incubated with cells for 72 hours for subsequent MTT viability assay.[101,102] Finally, MTT cell proliferation assay results were analysed using GraphPad Prism 8.0 (GraphPad Software, Inc). […] Measurements were repeated in triplicates.\n• MTT Cell Proliferation Assay\nInhibitory effect of the hits on SH-SY5Y cells were evaluated by a colorimetric method of CellTiter Non-Radioactive Cell Proliferation Assay Kit® (Promega, USA), based on the reduction of a yellow tetrazole, 3-(4,5-Dimethylthiazol-2-yl)-2, 5-diphenyl tetrazolium bromide (MTT), to a purple formazan, a process that take place in the mitochondria of viable cells.\nBriefly, the cells were seeded onto 96-well plates (Greiner, Germany) at a concentration of 2×10^4 cells/well and incubated for 24 hours through which cells are attached to the walls of the wells.\nSubsequently, hits under concern were screened on 50 µM and 10 µM concentrations (100 μL/ well). Each concentration was added in triplicates, and every plate contained a control of cells in plain medium. The cells were then incubated at 37 °C for 72 hours. After incubation, the media were aspirated from the wells and replaced by fresh media (100 μL/ well), and 15 µl MTT dye solution. The plates were incubated at 37 °C for four hours, and then 50 μL of solublization/stop solution was added to each well. Optical density (OD) at 560 nm wavelength was recorded one hour later using a 96-well plate reader (GloMax, Promega).\n• Reversal of SH-SY5Y resistance by verapamil\nAs SH-SY5Y cells are highly expressing ATP binding cassette subfamily B member 1 (ABCB1, MDR1) (Normalized expression, NX: 36.8%) 100, cell resistance were reversed using 10 µM concentration of verapamil added with each hit and incubated with cells for 72 hours for subsequent MTT viability assay 101,102."}}, "note": "Like-named read-outs stand apart in the source and are kept apart here."}
{"smiles": "COc1cccc2c1C(=O)c1c(O)c3c(c(O)c1C2=O)CC(O)(C(C)=NNC(=O)CO)CC3OC1CC(N)C(O)C(C)O1", "note": "(centres unmarked) [Cpd 298]", "values": [{"measurement": "IC50", "setting": "[1]", "result": 920, "unit": "nM"}, {"measurement": "% Inhibition at 10 μM U-87 MG", "setting": "[1]", "result": 81, "unit": "%"}, {"measurement": "SI: selectivity index in comparison with SH-SY5Y cells, U-87 MG", "setting": "[1]; U-87 MG vs SH-SY5Y", "result": 30.6}, {"measurement": "HS (hill Slope) LSD-1 enzyme", "setting": "LSD-1", "result": 0.36}, {"measurement": "% Inhibition at 10 μM LSD-1 enzyme", "setting": "LSD-1", "result": 78, "unit": "%"}, {"measurement": "IC50", "setting": "LSD-1", "result": 210, "unit": "nM"}, {"measurement": "IC50", "setting": "[2]", "result": 740, "unit": "nM"}, {"measurement": "% Inhibition at 10 μM Panc-1", "setting": "[2]", "result": 93, "unit": "%"}, {"measurement": "SI: selectivity index in comparison with SH-SY5Y cells, Panc-1", "setting": "[2]", "result": 24.6}, {"measurement": "IC50", "setting": "[3]", "result": 3060, "unit": "nM"}, {"measurement": "% Inhibition at 10 μM HDF", "setting": "[3]", "result": 69, "unit": "%"}, {"measurement": "SI: selectivity index in comparison with SH-SY5Y cells, HDF", "setting": "[3]", "result": 102}]}
{"smiles": "N=C(N)c1ccc(OCCCCCCOc2ccc(C(=N)N)cc2)cc1", "note": "[Cpd 288]", "values": [{"measurement": "% Inhibition at 10 μM U-87 MG", "setting": "[1]", "result": 47, "unit": "%"}, {"measurement": "% Inhibition at 10 μM LSD-1 enzyme", "setting": "LSD-1", "result": 18, "unit": "%"}, {"measurement": "% Inhibition at 10 μM Panc-1", "setting": "[2]", "result": 41, "unit": "%"}, {"measurement": "% Inhibition at 10 μM HDF", "setting": "[3]", "result": 35, "unit": "%"}]}
{"smiles": "N=C(N)c1ccc(OCCCCCCOc2ccc(C(=N)N)cc2I)cc1", "note": "[Hit 304]", "values": [{"measurement": "IC50", "setting": "[1]", "result": "7270 ± 670", "unit": "nM"}, {"measurement": "HS (hill Slope) LSD-1 enzyme", "setting": "LSD-1", "result": 0.68}, {"measurement": "IC50", "setting": "LSD-1", "result": "610 ± 120", "unit": "nM"}, {"measurement": "Experimental % inhibition Without verapamil At 50 μM", "setting": "[4]; without verapamil", "result": 88.87, "unit": "%"}, {"measurement": "IC50", "setting": "[4]; in presence of verapamil (10 μM)", "result": "370 ± 20", "unit": "nM"}, {"measurement": "IC50", "setting": "[2]", "result": "3850 ± 270", "unit": "nM"}]}
{"smiles": "COc1cccc2c1C(=O)c1c(O)c3c(c(O)c1C2=O)CC(O)(C(C)=NNC(=O)CO)CC3OC1CC(N)C(O)C(C)O1", "note": "(centres unmarked) [Hit 298]", "values": [{"measurement": "IC50", "setting": "[1]", "result": "930 ± 120", "unit": "nM"}, {"measurement": "HS (hill Slope) LSD-1 enzyme", "setting": "LSD-1", "result": 0.36}, {"measurement": "IC50", "setting": "LSD-1", "result": "210 ± 560", "unit": "nM"}, {"measurement": "Experimental % inhibition Without verapamil At 50 μM", "setting": "[4]; without verapamil", "result": 86.99, "unit": "%"}, {"measurement": "IC50", "setting": "[4]; without verapamil", "result": 30, "unit": "nM"}, {"measurement": "IC50", "setting": "[2]", "result": "740 ± 90", "unit": "nM"}]}
{"smiles": "O=C(NCCCCCCCCCCNC(=O)Nc1cccc(C2=NCCN2)c1)Nc1cccc(C2=NCCN2)c1", "note": "[Cpd 285]", "values": [{"measurement": "% Inhibition at 10 μM U-87 MG", "setting": "[1]", "result": 0, "unit": "%"}, {"measurement": "% Inhibition at 10 μM LSD-1 enzyme", "setting": "LSD-1", "result": 18, "unit": "%"}, {"measurement": "% Inhibition at 10 μM Panc-1", "setting": "[2]", "result": 3, "unit": "%"}, {"measurement": "% Inhibition at 10 μM HDF", "setting": "[3]", "result": 31, "unit": "%"}]}
{"smiles": "COc1cccc2c1C(=O)c1c(O)c3c(c(O)c1C2=O)C[C@@](O)(C(=O)CO)C[C@@H]3O[C@H]1C[C@H](N)[C@H](O)[C@H](C)O1", "note": "[Doxorubicin, reference compound]", "values": [{"measurement": "IC50", "setting": "[1]; Homo sapiens, U-87 MG", "result": 1370, "unit": "nM"}, {"measurement": "inhibition at 10 µM", "setting": "[1]; Homo sapiens, U-87 MG", "result": 86, "unit": "%"}, {"measurement": "inhibition at 10 µM", "setting": "[4]; Homo sapiens, read-out: Experimental % inhibition At 10 μM (column 6, head as shown: With verapamil), 72 h, 10 μM", "result": 91, "unit": "%"}, {"measurement": "IC50", "setting": "[4]; Homo sapiens, without verapamil", "result": 600, "unit": "nM"}, {"measurement": "IC50", "setting": "[2]; Homo sapiens, PANC-1", "result": 1380, "unit": "nM"}, {"measurement": "inhibition at 10 µM", "setting": "[2]; Homo sapiens, PANC-1", "result": 76, "unit": "%"}]}
{"smiles": "CCCCOCCCNCC(=O)Nc1ccc(S(=O)(=O)c2ccc(NC(=O)CNCCCOCCCC)cc2)cc1", "note": "[Cpd 287]", "values": [{"measurement": "% Inhibition at 10 μM U-87 MG", "setting": "[1]", "result": 15, "unit": "%"}, {"measurement": "% Inhibition at 10 μM LSD-1 enzyme", "setting": "LSD-1", "result": 96, "unit": "%"}, {"measurement": "% Inhibition at 10 μM Panc-1", "setting": "[2]", "result": 39, "unit": "%"}, {"measurement": "% Inhibition at 10 μM HDF", "setting": "[3]", "result": 7, "unit": "%"}]}
{"smiles": "N=C(N)c1ccc(OCCCCCCOc2ccc(C(=N)N)cc2I)cc1", "note": "[Cpd 304]", "values": [{"measurement": "IC50", "setting": "[1]", "result": 7270, "unit": "nM"}, {"measurement": "% Inhibition at 10 μM U-87 MG", "setting": "[1]", "result": 64, "unit": "%"}, {"measurement": "HS (hill Slope) LSD-1 enzyme", "setting": "LSD-1", "result": 0.70}, {"measurement": "% Inhibition at 10 μM LSD-1 enzyme", "setting": "LSD-1", "result": 88, "unit": "%"}, {"measurement": "IC50", "setting": "LSD-1", "result": 610, "unit": "nM"}, {"measurement": "IC50", "setting": "[2]", "result": 3850, "unit": "nM"}, {"measurement": "% Inhibition at 10 μM Panc-1", "setting": "[2]", "result": 73, "unit": "%"}, {"measurement": "SI: selectivity index in comparison with SH-SY5Y cells, Panc-1", "setting": "[2]", "result": 2.6}, {"measurement": "IC50", "setting": "[3]", "result": 5730, "unit": "nM"}, {"measurement": "% Inhibition at 10 μM HDF", "setting": "[3]", "result": 68, "unit": "%"}, {"measurement": "SI: selectivity index in comparison with SH-SY5Y cells, HDF", "setting": "[3]", "result": 15.48}]}
